Measurements: patent US10316017B2, “COT modulators and methods of use thereof” (Gilead Sciences, Inc., priority 2015, dated 2019)
Like-named read-outs stand apart in the source and are kept apart here.

Key:
[1] = test system: TNFα production in LPS-stimulated human monocytes; assay: Cot Monocyte TNFα Cell Based Assay; settings: Homo sapiens, Monocyte, read-out: EC50 TNF
Method: Example 60: Cot Monocyte TNFα Cell Based Assay
The cell suspension was then plated at a density of 5,000 cells/well onto black 384 well Greiner clear bottom plates. Plates were pre-spotted with test compounds and serially diluted in DMSO where 200 nL/well were delivered using the Echo 550 acoustic liquid dispenser (Labcyte®) for a final DMSO concentration of 0.5%. Plated cells were treated with compound for 1 hour at 37° C. Cells were then stimulated with 50 pg/ml of LPS (Sigma) excluding outside columns of plate used for unstimulated cell control wells. Cells were incubated for an additional 4 hours at 37° C. Cells were then spun out of the media and 5 ul of sample were taken and analyzed for total TNFα content using the TR-FRET Human TNFα detection system (CisBio). This system utilizes two labeled antibodies (cryptate and XL665) that bind to two different epitopes of the TNFα molecule and produce FRET signal proportional to the concentration of TNFα in the sample. Detection antibodies are mixed 50:50 and 5 μL were dispensed into each well. Plates were covered with clear seals and incubated at room temp overnight. […] Percent of control was calculated as follows: % Control=100×(RatioSample−Ratio0% stimulation)/(Ratio100% Stimulation−Ratio0% Stimulation) where unstimulated cells (0% stimulation) were the negative control and stimulated cells (100% stimulation) were used as the positive control.

[2] = target: T1, human Cot catalytic domain (30-397 amino acids) (Homo sapiens, UniProt P41279); assay: High Throughput Cot Biochemical Assay (KinEASE TR-FRET); settings: read-out: IC50 HTRF
T1 construct: Purified recombinant human Cot catalytic domain (30-397 amino acids) was purchased from Cama Biosciences; purchased Cama Biosciences (so in the source)
Procedure, shortened: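 Recombinant human Cot catalytic domain (aa 30-397), 5 nM, with 1 μM STK3 peptide and 400 μM ATP in MOPS pH 7.0 buffer with MgOAc, DTT, BSA, NP-40, glycerol, 0.1% DMSO. Phosphorylated XL665-peptide detected by Eu-[…] antibody TR-FRET.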

[3] = TNFα in LPS-stimulated human monocytes
[4] = Cot biochemical HTRF (KinEASE TR-FRET) assay
[5] = Cot KinEASE TR-FRET (HTRF) biochemical assay, 400 μM ATP

T1 sequence (P41279 30-397): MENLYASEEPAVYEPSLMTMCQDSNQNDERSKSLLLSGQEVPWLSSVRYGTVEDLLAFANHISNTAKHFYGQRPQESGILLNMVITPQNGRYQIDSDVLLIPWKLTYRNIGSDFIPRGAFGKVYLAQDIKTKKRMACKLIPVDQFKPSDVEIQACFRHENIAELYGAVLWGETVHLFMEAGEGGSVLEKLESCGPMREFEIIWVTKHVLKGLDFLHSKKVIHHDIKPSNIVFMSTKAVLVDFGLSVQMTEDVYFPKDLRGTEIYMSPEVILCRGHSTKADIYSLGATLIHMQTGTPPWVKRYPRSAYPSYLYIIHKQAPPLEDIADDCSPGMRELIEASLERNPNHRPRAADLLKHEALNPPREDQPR

SMILES	EC50 [1, 3]	IC50 [2, 4]	IC50 [2, 5]	EC50 ([1]; LPS-stimulated human monocytes, TNFα TR-FRET)	IC50 ([2]; Cot KinEASE TR-FRET, 400 μM ATP)
Cn1cnnc1C(Nc1cc(Cl)c2ncc(C#N)c(Nc3ccc(F)c(Cl)c3)c2c1)c1ccc(F)cc1 (centres unmarked) [Example 854, 8-chloro-4-((3-chloro-4-fluorophenyl)amino)-6-(((4-fluorophenyl)(4-methyl-4H-1,2,4-triazol-3-yl)methyl)amino)quinoline-3-carbonitrile]	> 10000 nM	469 nM			
Cc1c(Cl)cccc1Nc1c(C#N)cnc2c(Cl)cc(N[C@@H](c3ccc(Cl)cc3)c3cn(C4CCN(C(C)(C)C)CC4)nn3)cc12 [Example 687, (S)-6-(((1-(1-(tert-butyl)piperidin-4-yl)-1H-1,2,3-triazol-4-yl)(4-chlorophenyl)methyl)amino)-8-chloro-4-((3-chloro-2-methylphenyl)amino)quinoline-3-carbonitrile]	2830 nM	40 nM			
N#Cc1cccc([C@H](Nc2cc(Cl)c3ncc(C#N)c(Nc4ccc(Cl)c(Cl)c4F)c3c2)c2cn(C3COC3)nn2)c1 [Example 466, (S)-8-chloro-6-(((3-cyanophenyl)(1-(oxetan-3-yl)-1H-1,2,3-triazol-4-yl)methyl)amino)-4-((3,4-dichloro-2-fluorophenyl)amino) quinoline-3-carbonitrile]	1400 nM	53 nM			
CC(C)(C)CNc1c(C#N)cnc2c(F)cc(N[C@H](c3cn(C4(C(F)(F)F)CC4)nn3)c3ccccc3Cl)cc12 [Example 1017, (S)-6-(((2-chlorophenyl)(1-(1-(trifluoromethyl)cyclopropyl)-1H-1,2,3-triazol-4-yl)methyl)amino)-8-fluoro-4-(neopentylamino)quinoline-3-carbonitrile]				≥ 1000 nM	85 nM
CC(C)(C)N1CCC(n2cc([C@@H](Nc3cc(Cl)c4ncc(C#N)c(NCC5CCC5)c4c3)c3ccccc3)nn2)CC1 [Example 454, (S)-6-(((1-(1-(tert-butyl)piperidin-4-yl)-1H-1,2,3-triazol-4-yl)(phenyl)methyl)amino)-8-chloro-4-((cyclobutylmethyl)amino) quinoline-3-carbonitrile]	1770 nM	49 nM			

Further lines, results first:

EC50 [1, 3]	IC50 [2, 4]	IC50 [2, 5]	EC50 ([1]; LPS-stimulated human monocytes, TNFα TR-FRET)	IC50 ([2]; Cot KinEASE TR-FRET, 400 μM ATP)	SMILES
229 nM		15 nM			COCCN1CCC(n2cc([C@@H](Nc3cc(Cl)c4ncc(C#N)c(Nc5ccc(F)c(Cl)c5)c4c3)c3ccc(F)cc3)nn2)CC1 [Compound 35]
1300 nM	217 nM				N#Cc1cnc2c(Cl)cc(N[C@@H](c3ccc(Cl)cc3)c3cn(C4CCN(C5COC5)CC4)nn3)cc2c1Nc1ccc(F)c(F)c1 [Example 723, (S)-8-chloro-6-(((4-chlorophenyl)(1-(1-(oxetan-3-yl)piperidin-4-yl)-1H-1,2,3-triazol-4-yl)methyl)amino)-4-((3,4-difluorophenyl)amino)quinoline-3-carbonitrile]
337 nM		16 nM			[2H][C@](Nc1cc(Cl)c2ncc(C#N)c(NCC(C)(C)C)c2c1)(c1cn(C2[C@H]3CN(C4COC4)C[C@@H]23)nn1)c1ccccc1Cl (stereo partly drawn) [Example 100, 8-chloro-6-(((2-chlorophenyl) (1-((1R,5S,6r)-3-(oxetan-3-yl)-3-azabicyclo[3.1.0]hexan-6-yl)-1H-1,2,3-triazol-4-yl)methyl-d)amino)-4-(neopentylamino) quinoline-3-carbonitrile]
305 nM	2 nM				N#Cc1cnc2c(Cl)cc(N[C@@H](c3ccccc3)c3cn(C4CCNCC4)nn3)cc2c1Nc1ccc(F)c(Cl)c1 [Example 778, (S)-8-chloro-4-((3-chloro-4-fluorophenyl)amino)-6-((phenyl (1-(piperidin-4-yl)-1H-1,2,3-triazol-4-yl)methyl)amino) quinoline-3-carbonitrile]
362 nM	32 nM				CCN1CCC(n2cc(C(Nc3cc(Cl)c4ncc(C#N)c(Nc5ccc(F)c(Cl)c5)c4c3)c3cc(F)c(F)c(F)c3)nn2)CC1 (centres unmarked) [Example 889, 8-chloro-4-((3-chloro-4-fluorophenyl)amino)-6-(((1-(1-ethylpiperidin-4-yl)-1H-1,2,3-triazol-4-yl)(3,4,5-trifluorophenyl)methyl)amino) quinoline-3-carbonitrile]
